According to ChEMBL document CHEMBL6121006, “Marine natural product-inspired discovery of novel BRD4 inhibitors with anti-inflammatory activity” (Eur J Med Chem, 2025):
Calls of active or inactive are those of the source. No cut-off for these calls is given here.

Tests used:
[1] = molecular target: Bromodomain-containing protein 2 (Homo sapiens) (UniProt P25440); assay: Inhibition of BRD2 BD2 (unknown origin) at 1 uM incubated for 2 hrs by TR-FRET assay relative to control
Mus musculus [2] = assay: Antiinflammatory activity against LPS-induced C57BL/6 mouse acute inflammation model assessed as decrease in infiltration of renal interstitial inflammatory cells at 100 mg/kg, po pre-administered for 2 hrs followed by LPS stimulation for 6 hrs; format: functional, organism-based; settings: time 8.0 hrs
[3] = molecular target: T1, Bromodomain-containing protein 4 (Homo sapiens, UniProt O60885); assay: Inhibition of human recombinant BRD4 BD2 (349 to 460 residues) extracted from Escherichia coli BL21 (DE3) at 10 uM incubated for 2 hrs by TR-FRET assay relative to control
[4] = molecular target: Bromodomain testis-specific protein (Homo sapiens) (UniProt Q58F21); assay: Inhibition of BRDT BD2 (unknown origin) at 1 uM incubated for 2 hrs by TR-FRET assay relative to control
Mus musculus [5] = assay: Antiinflammatory activity against LPS-induced C57BL/6 mouse acute inflammation model assessed as decrease in number of interstitial vacuoles at 100 mg/kg, po pre-administered for 2 hrs followed by LPS stimulation for 6 hrs; format: functional, organism-based; settings: time 8.0 hrs
Mus musculus [6] = assay: Antiinflammatory activity against LPS-induced C57BL/6 mouse acute inflammation model assessed as improvement of hepatic necrosis in liver at 50 to 100 mg/kg, po pre-administered for 2 hrs followed by LPS stimulation for 6 hrs; format: functional, organism-based; settings: dose 50-100 mg/kg, time 8.0 hrs
Mus musculus [7] = assay: Antiinflammatory activity against C57BL/6 mouse acute inflammation model assessed as reduction in LPS induced lung pulmonary hemorrhage at 50 to 100 mg/kg, po pre-administered for 2 hrs followed by LPS stimulation for 6 hrs; format: functional, organism-based; settings: dose 50-100 mg/kg, time 8.0 hrs
[8] = molecular target: Bromodomain testis-specific protein (Homo sapiens) (UniProt Q58F21); assay: Inhibition of BRDT BD1 (unknown origin) at 1 uM incubated for 2 hrs by TR-FRET assay relative to control
[9] = molecular target: T1, Bromodomain-containing protein 4; assay: Inhibition of human recombinant BRD4 BD1 (42 to 167 residues) extracted from Escherichia coli BL21 (DE3) incubated for 2 hrs by TR-FRET assay
[10] = molecular target: T1, Bromodomain-containing protein 4; assay: Inhibition of human recombinant BRD4 BD2 (349 to 460 residues) extracted from Escherichia coli BL21 (DE3) incubated for 2 hrs by TR-FRET assay
RAW264.7 [11] = assay: Anti-inflammatory activity in mouse RAW264.7 cells assessed as inhibition of LPS-induced NO production preincubated with compound for 24 hrs followed by LPS stimulation by Griess reagent based analysis; format: functional, cell-based
RAW264.7 [12] = assay: Anti-inflammatory activity in mouse RAW264.7 cells assessed as inhibition of LPS-induced IL-6 expression preincubated with compound for 2 hrs followed by LPS stimulation and measured after 6 hrs by RT-qPCR analysis; format: functional, cell-based; settings: dose 2.5-20 µM, time 8.0 hrs
THP-1 = assay: Anti-inflammatory activity in human THP-1 cells assessed as inhibition of LPS-induced TNF-alpha expression preincubated with compound for 2 hrs followed by LPS stimulation and measured after 6 hrs by RT-qPCR analysis; format: functional, cell-based; settings: dose 2.5-20 µM, time 8.0 hrs
[13] = molecular target: T2, ATPase family AAA domain-containing protein 2 (Homo sapiens) (UniProt Q6PL18); assay: Inhibition of ATAD2A (unknown origin) at 1 uM incubated for 2 hrs by TR-FRET assay relative to control
T2 sequence (whole entry): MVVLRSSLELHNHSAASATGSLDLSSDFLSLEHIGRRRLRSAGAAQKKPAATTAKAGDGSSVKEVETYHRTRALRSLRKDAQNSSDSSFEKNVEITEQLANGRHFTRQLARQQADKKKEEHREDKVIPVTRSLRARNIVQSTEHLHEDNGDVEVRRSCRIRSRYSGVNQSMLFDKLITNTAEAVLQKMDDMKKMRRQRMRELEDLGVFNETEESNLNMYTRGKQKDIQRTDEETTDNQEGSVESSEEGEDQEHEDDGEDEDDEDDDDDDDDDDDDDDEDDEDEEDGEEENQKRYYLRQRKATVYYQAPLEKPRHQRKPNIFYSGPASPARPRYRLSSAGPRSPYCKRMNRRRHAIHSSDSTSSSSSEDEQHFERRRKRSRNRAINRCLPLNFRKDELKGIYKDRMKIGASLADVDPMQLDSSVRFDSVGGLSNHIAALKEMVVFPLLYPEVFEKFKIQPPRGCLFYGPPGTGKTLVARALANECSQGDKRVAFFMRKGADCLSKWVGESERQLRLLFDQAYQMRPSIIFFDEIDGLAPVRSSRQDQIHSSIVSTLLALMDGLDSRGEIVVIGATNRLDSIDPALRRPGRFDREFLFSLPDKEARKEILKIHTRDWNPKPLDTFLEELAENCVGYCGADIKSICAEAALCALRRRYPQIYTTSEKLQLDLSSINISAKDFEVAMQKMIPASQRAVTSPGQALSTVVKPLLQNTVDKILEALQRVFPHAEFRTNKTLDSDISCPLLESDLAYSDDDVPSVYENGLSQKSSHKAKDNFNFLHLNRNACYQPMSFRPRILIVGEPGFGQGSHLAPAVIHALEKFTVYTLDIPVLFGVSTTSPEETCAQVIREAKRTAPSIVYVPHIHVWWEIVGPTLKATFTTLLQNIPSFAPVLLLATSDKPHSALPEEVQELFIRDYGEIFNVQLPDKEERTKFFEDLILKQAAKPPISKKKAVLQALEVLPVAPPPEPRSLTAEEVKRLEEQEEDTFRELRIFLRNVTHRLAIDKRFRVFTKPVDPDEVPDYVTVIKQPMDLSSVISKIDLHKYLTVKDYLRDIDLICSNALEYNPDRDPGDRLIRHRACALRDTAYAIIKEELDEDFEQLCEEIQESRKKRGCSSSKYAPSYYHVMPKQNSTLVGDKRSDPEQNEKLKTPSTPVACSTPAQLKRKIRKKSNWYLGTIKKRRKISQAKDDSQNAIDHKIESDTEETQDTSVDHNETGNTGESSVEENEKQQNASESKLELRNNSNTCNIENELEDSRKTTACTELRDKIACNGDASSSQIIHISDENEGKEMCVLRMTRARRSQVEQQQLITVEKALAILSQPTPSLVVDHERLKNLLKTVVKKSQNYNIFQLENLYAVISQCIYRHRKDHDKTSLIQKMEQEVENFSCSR

Mus musculus [14] = assay: Antiinflammatory activity against C57BL/6 mouse acute inflammation model assessed as reduction in LPS induced lung destruction at 50 to 100 mg/kg, po pre-administered for 2 hrs followed by LPS stimulation for 6 hrs; format: functional, organism-based; settings: dose 50-100 mg/kg, time 8.0 hrs

Bromodomain-containing protein 2 (Homo sapiens), sequence (P25440 whole entry, looked up): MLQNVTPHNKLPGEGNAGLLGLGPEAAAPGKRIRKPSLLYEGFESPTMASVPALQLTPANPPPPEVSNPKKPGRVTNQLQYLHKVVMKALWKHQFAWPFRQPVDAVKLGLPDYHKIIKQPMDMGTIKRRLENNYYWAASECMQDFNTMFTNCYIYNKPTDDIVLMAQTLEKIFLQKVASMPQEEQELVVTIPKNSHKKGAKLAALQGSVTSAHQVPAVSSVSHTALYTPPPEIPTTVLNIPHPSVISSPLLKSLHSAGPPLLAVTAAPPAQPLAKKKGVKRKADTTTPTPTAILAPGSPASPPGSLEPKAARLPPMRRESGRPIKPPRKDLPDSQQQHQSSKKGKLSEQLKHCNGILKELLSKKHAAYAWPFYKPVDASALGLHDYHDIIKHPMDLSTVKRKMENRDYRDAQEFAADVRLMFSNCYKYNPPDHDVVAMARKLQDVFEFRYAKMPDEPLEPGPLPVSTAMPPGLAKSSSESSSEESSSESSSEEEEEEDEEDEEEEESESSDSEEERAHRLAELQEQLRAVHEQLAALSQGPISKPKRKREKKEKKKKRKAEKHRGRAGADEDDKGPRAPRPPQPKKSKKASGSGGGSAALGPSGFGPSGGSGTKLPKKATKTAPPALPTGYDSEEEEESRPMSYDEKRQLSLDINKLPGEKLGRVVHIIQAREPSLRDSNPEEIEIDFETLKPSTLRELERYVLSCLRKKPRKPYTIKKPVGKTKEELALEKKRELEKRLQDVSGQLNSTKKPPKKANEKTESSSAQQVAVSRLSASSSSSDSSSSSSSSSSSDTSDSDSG

inhibition [1]: 30%
inhibition [3]: 89%
inhibition [4]: 7%
inhibition [8]: 6%
IC50 [9]: 3810 nM
IC50 [10]: 120 nM
IC50 (RAW264.7 [11]): 1980 nM
inhibition [13]: 5%
SMILES: COc1ccc(/C=C/c2nc3cc(OC)cc(OC)c3c(=O)[nH]2)cc1
Activity (Mus musculus [2]): Active
Activity (Mus musculus [5]): Active
Activity (Mus musculus [6]): Active
Activity (Mus musculus [7]): Active
Activity (RAW264.7 [12]): Dose-dependent-effect
Activity (THP-1): Dose-dependent-effect
Activity (Mus musculus [14]): Active
